{"source": "patent US8962558B2", "about": "“Methods for reducing GnRH-positive tumor cell proliferation using the GnRH antagonist IN3” (priority 1997, dated 2015)", "key": {"BLM melanoma cells [1]": {"tested_on": "BLM melanoma cells", "experiment": "Cell proliferation studies, BLM cells", "type": "cell-based, human", "conditions": "10^−11-10^−6 M, daily for 7 days", "experimental": "BLM cells were plated at a density of 700 cells/cm^2 in […] in culture medium. Cells were allowed to attach and start growing for 3 days; the seeding media were then changed. Cells were treated daily (the drug was added to the medium every day), for 7 days, with LHRH-A (10^−11-10^−6 M); the medium was changed at every two days. At the end of the treatment, cells were collected and counted by hemocytometer.\nTo confirm the specificity of the action of LHRH-A on melanoma cell proliferation, it was investigated whether the effects of the LHRH agonist might be counteracted by a potent GnRH antagonist. A preliminary experiment was performed to select the dose of the GnRH antagonist (ANT) to be used. To this purpose, BLM cells were treated daily with ANT at different doses (10^−11-10^−6 M).) Cells were harvested and counted after 7 days of treatment. Subsequently, BLM cells were treated daily, for 7 days, with LHRH-A (10^−7 M), either in the absence or in the presence of ANT (10^−7 M). Cells were counted 7 days after the beginning of the treatment.\nAll proliferation experiments were performed in four to six replicates. The data obtained from three independent experiments were analyzed according to the Dunnett's test after one-way ANOVA."}, "Glioblastoma multiforme": {"tested_on": "Glioblastoma multiforme", "experiment": "Phase II study with ZOLADEX (Example 7)", "type": "in vivo, human", "experimental": "Patients with histologically confirmed Glioblastoma multiforme following a first operation were treated (also randomized controlled) with ZOLADEX® in the manner described by Jonat et al., 1995, European J. Cancer, 137-142. Following radiotherapy, the patients are assigned to two different groups. One group received treatment, for example with ZOLADEX® and one group without ZOLADEX® (or with Cetrorelix® and without Cetrorelix®, or with ANTIDE® and without ANTIDE®, or with […]® or without […]® etc.). The resulting clinical effects are similar to metastasized […] mammary carcinoma. The percentage of patients showing an actual significant therapy effect is evaluated according to the criteria of tumor volume, recidivation-free survival, overall survival following initial application of the compound, and Karnofsky and Spitzer indices in a clinical neurological examination and under consideration of the other examination criteria (Sposto, R., et al., 1989, J. Neurooncology, 7, 165-177, and Kirby, S., et al., 1995, J. Natl. Cancer Institute, 87, 1884-1888, 1995)."}, "BLM melanoma cells [2]": {"tested_on": "BLM melanoma cells", "experiment": "Matrigel gel assay (invasion)", "type": "cell-based, human", "conditions": "10^−6 M; 4, 8 and 12 days", "experimental": "This dose has been also used in previous papers analyzing the interaction between GnRH agonists and stimulatory growth factors in prostate cancer cells. Subconfluent BLM cells were collected by trypsinization, resuspended in culture medium and seeded in 20 μL (150,000 cells/drop) on the lid of a culture dish. The lid was then placed on a dish filled with 2 mL of culture medium and incubated at 37° C. for 48 h. Matrigel solution (80 μL, 2.7 mg/mL) was pipetted onto the bottom of wells of a 24-well culture dish, and left to set at 37° C. Cell aggregates were transferred over the cushion and then overlaid with additional 20 μL of Matrigel. The aggregates into Matrigel were covered with 400 μL culture medium in the absence or in the presence of LHRH-A (10^−6 M). The aggregates were then observed daily under a light microscope and at the end of the incubation time phase-contrast pictures of the aggregates were taken."}, "BLM melanoma cells [3]": {"tested_on": "BLM melanoma cells", "experiment": "Chemomigration assay (Boyden's chamber)", "type": "cell-based, human", "conditions": "10^−6 M pretreatment for 5 days, FBS 5%", "experimental": "The assay was performed using a 48-well Boyden's chamber, according to the manufacturer's instruction (Neuroprobe, Cabin John, Md.). Subconfluent BLM cells, grown in culture medium, were pretreated for 5 days with LHRH-A (10^−6 M) and harvested at the end of the treatment. BLM cell suspensions (10^5 cells/50 μL), resuspended in culture medium deprived of FBS, were placed in the open-bottom wells of the upper compartment of the chamber. Each pair of wells were separated by polyvinylpyrrolidone-free polycarbonate porous membrane (8-μm pores) pre-coated with gelatin (0.2 mg/mL in PBS). The chemoattractant (FBS 5%) was placed in the lower compartment of the chamber. The chamber was then kept for 4 h in the cell culture incubator. After that, the cells migrated through the pores, and adhered to the underside of the membrane, were fixed, stained (Diff-Quick kit, DADE, Dudingen, CH) and mounted onto glass slides. For quantitative analysis, six random objective fields of stained cells were counted for each well (8 wells/experimental group) and the mean number of migrating cells/mm^2 was calculated. The data obtained from four independent experiments were compared by ANOVA and Dunnett's test."}}}
{"smiles": "CC(C)C[C@H](NC(=O)[C@@H](COC(C)(C)C)NC(=O)[C@H](Cc1ccc(O)cc1)NC(=O)[C@H](CO)NC(=O)[C@H](Cc1c[nH]c2ccccc12)NC(=O)[C@H](Cc1cnc[nH]1)NC(=O)[C@@H]1CCC(=O)N1)C(=O)N[C@@H](CCCNC(=N)N)C(=O)N1CCC[C@H]1C(=O)NNC(N)=O", "note": "[ZOLADEX®, D-Ser(tBu)^6Aza-Gly-LHRH]", "values": [{"measurement": "cell proliferation", "setting": "BLM melanoma cells [1]", "result": "significant and dose-dependent inhibition of cell proliferation"}, {"measurement": "reduction in tumor volume vs untreated control group", "setting": "Glioblastoma multiforme; MRT and/or CAT scans", "result": "significantly higher reduction in tumor volume"}, {"measurement": "overall survival following initial application vs untreated control group", "setting": "Glioblastoma multiforme; in vivo", "result": "significantly longer overall survival"}, {"measurement": "recidivation-free survival vs untreated control group", "setting": "Glioblastoma multiforme; in vivo", "result": "significantly longer recidivation-free survival"}, {"measurement": "migration of the cells through the Matrigel", "setting": "BLM melanoma cells [2]", "result": "completely abrogates"}, {"measurement": "number of cells that migrate in response to the chemoattractant", "setting": "BLM melanoma cells [3]", "result": "significantly decreased"}]}
